Results as given in article PMC8235151, “Glycoside Hydrolases and Non-Enzymatic Glycation Inhibitory Potential of Viburnum opulus L. Fruit—In Vitro Studies” (Antioxidants, 2021).
In brackets after ≈: the same amount, converted by molar mass. Entries after “also recorded” stand apart in the source; their conditions may differ.

Key:
[1] = tested on: rat intestinal α-glucosidase; assay: Mode of α-glucosidase inhibition (Lineweaver-Burk); type: biochemical; details: for type of inhibition against α-glucosidase: regardless of the type of disaccharide
Experimental: The assessment of the α-glucosidase activity was slightly modified according to […] et al. and Gao et al.. […] Enzyme isolation was performed in an ultrasonic cleaner (for 30 sec) in an ice bath, then 30 sec without ultrasonic. […] After that, the solution was centrifuged at 4 °C (3000 rpm, 30 min). 50 μL of diluted V. opulus samples were mixed with 50 μL of enzyme supernatant (diluted 2 times for reaction with maltose). After incubation at 37 °C for 10 min, 50 μL of substrate (0.1 M maltose or 0.5 M sucrose solution prepared in 0.1 M phosphate buffer, pH 6.9) was added and incubated in a 96-well microplate at 37 °C for 20 min for maltose and 60 min for sucrose. The reaction was stopped by adding 150 μL of 2 M Tris-HCl buffer (pH 7.0). The concentration of glucose released from the reaction mixture was determined by the commercial glucose test (BIOMAXIMA SA, Lublin, Poland). […] A double reciprocal graph (1/v versus 1/S, where “v” is the reaction rate and “S” the concentration of the substrate), was plotted. All samples were tested at three different doses using six concentrations of substrate.

[2] = target: T1, α-amylase from porcine pancreas (Sus scrofa, UniProt P00690); assay: Mode of α-amylase inhibition (Lineweaver-Burk); type: biochemical; details: for type of inhibition against α-amylase: regardless of the type of starch
T1 construct: α-amylase from porcine pancreas type VI-B; purchased Sigma Aldrich (Steinheim, Germany) type VI-B (catalogue number not given); host or cells: porcine pancreas
T1 sequence (P00690 16-511): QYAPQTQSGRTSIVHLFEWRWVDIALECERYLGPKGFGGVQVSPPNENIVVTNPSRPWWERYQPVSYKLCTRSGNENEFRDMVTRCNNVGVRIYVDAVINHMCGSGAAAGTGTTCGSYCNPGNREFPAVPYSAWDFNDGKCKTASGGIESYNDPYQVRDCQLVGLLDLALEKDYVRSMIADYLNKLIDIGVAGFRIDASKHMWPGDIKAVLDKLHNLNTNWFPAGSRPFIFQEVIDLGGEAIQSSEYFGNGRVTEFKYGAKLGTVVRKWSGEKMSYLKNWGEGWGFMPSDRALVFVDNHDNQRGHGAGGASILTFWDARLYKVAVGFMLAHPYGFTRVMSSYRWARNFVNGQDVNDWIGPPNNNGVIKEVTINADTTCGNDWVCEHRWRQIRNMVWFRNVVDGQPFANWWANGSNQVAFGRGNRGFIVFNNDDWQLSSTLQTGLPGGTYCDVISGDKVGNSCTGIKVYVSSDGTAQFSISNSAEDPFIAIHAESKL
Experimental: (§1) The α-amylase inhibition assay was based on a previously-described spectrophotometric method with some modifications. All reagents were prepared with 0.1 M phosphate buffer containing 6 mM CaCl2 (pH 6.9). Briefly, 20 µL of diluted V. opulus samples and 40 µL of potato starch (0.83 g/L) or starch from rice (1 g/L) solution were mixed with 20 µL of α-amylase (0.1 mg/mL for potato starch and 0.2 mg/mL for starch from rice) in a 96-well plate. […] The absorbance was read at 600 nm using a microplate reader (Synergy2, Biotek Instruments Inc., Winooski, VT, USA). […] Each sample was measured in triplicate.
The enzymes activities without and with tested samples were studied using the methods described in Section 2.5 and Section 2.6. A double reciprocal graph (1/v versus 1/S, where “v” is the reaction rate and “S” the concentration of the substrate), was plotted. All samples were tested at three different doses using six concentrations of substrate.

[3] = target: rat intestinal α-glucosidase; assay: α-glucosidase inhibition assay (glucose release from disaccharide); type: biochemical
Experimental: The assessment of the α-glucosidase activity was slightly modified according to […] et al. and Gao et al.. […] Enzyme isolation was performed in an ultrasonic cleaner (for 30 sec) in an ice bath, then 30 sec without ultrasonic. This step was repeated 12 times. After that, the solution was centrifuged at 4 °C (3000 rpm, 30 min). 50 μL of diluted V. opulus samples were mixed with 50 μL of enzyme supernatant (diluted 2 times for reaction with maltose). After incubation at 37 °C for 10 min, 50 μL of substrate (0.1 M maltose or 0.5 M sucrose solution prepared in 0.1 M phosphate buffer, pH 6.9) was added and incubated in a 96-well microplate at 37 °C for 20 min for maltose and 60 min for sucrose. The reaction was stopped by adding 150 μL of 2 M Tris-HCl buffer (pH 7.0). The concentration of glucose released from the reaction mixture was determined by the commercial glucose test (BIOMAXIMA SA, Lublin, Poland).

[4] = tested on: AGE formation (BSA-glucose model); assay: Protein glycation inhibition assay, BSA-glucose model; type: biochemical, bovine; details: 37 °C, 13 days
Experimental: The bovine serum albumin (BSA) and glucose/fructose assay was carried according to the method of Błaszczak et al. [45] with some modifications. We prepared 25 mL of the test solution containing D-glucose or D-fructose (1.0 M), BSA (10 mg/mL) and sodium azide (0.1 mg/mL) in the phosphate buffer (0.1 M, pH 7.4). The test solution (1 mL) was incubated in the dark at 37 °C for 13 days for glucose and for 6 days for fructose with or without 0.5 mL of tested V. opulus samples. […] Next, the formation of AGE was evaluated based on fluorescence intensity at λ = 330 nm (excitation wave) and λ = 460 nm (emission wave). Fluorescence intensity was measured in 96-well plates (black, OptiPlate-96 F, PerkinElmer, UK) in a microplate reader (Synergy2, BioTek Instruments Inc., Winooski, VT, USA).

[5] = tested on: AGE formation (BSA-fructose model); assay: Protein glycation inhibition assay, BSA-fructose model; type: biochemical, bovine; details: 37 °C, 6 days
Experimental: The bovine serum albumin (BSA) and glucose/fructose assay was carried according to the method of Błaszczak et al. with some modifications. We prepared 25 mL of the test solution containing D-glucose or D-fructose (1.0 M), BSA (10 mg/mL) and sodium azide (0.1 mg/mL) in the phosphate buffer (0.1 M, pH 7.4). The test solution (1 mL) was incubated in the dark at 37 °C for 13 days for glucose and for 6 days for fructose with or without 0.5 mL of tested V. opulus samples. […] Next, the formation of AGE was evaluated based on fluorescence intensity at λ = 330 nm (excitation wave) and λ = 460 nm (emission wave). Fluorescence intensity was measured in 96-well plates (black, OptiPlate-96 F, PerkinElmer, UK) in a microplate reader (Synergy2, BioTek Instruments Inc., Winooski, VT, USA).

[6] = target: maltase from rat small intestine; design: method as in PMID 16787002; details: cited from earlier work
[7] = target: α-amylase porcine pancreas; design: method as in PMID 16787002; details: cited from earlier work
[8] = target: sucrase from rat small intestine; design: method as in PMID 16787002; details: cited from earlier work
[9] = tested on: porcine pancreatic α-amylase; details: potato and maize starch; cited from earlier work
[10] = target: T2, α-amylase from porcine pancreas type VI-B (Sus scrofa, UniProt P00690); assay: α-amylase inhibition assay (starch-iodine, spectrophotometric); type: biochemical
T2 construct: α-amylase from porcine pancreas type VI-B; purchased Sigma Aldrich (Steinheim, Germany) type VI-B (catalogue number not given); host or cells: porcine pancreas
T2 sequence (P00690 16-511): T1 sequence (P00690 16-511)
Experimental: as §1

α-amylase = target: T3, α-amylase (Sus scrofa, UniProt P00690); design: method as in doi:10.3390/pr8111388; details: cited from earlier work
T3 construct: purchased Sigma Aldrich (Steinheim, Germany) type VI-B (catalogue number not given); host or cells: porcine pancreas
T3 sequence (P00690 16-511): T1 sequence (P00690 16-511)

C[C@H]1O[C@H](O[C@H]2[C@H](O)[C@@H](O)[C@@H](O[C@H]3[C@H](O)[C@@H](O)C(O)O[C@@H]3CO)O[C@@H]2CO)[C@H](O)[C@@H](O)[C@@H]1N[C@H]1C=C(CO)[C@@H](O)[C@H](O)[C@H]1O (some centres unmarked) [Acarbose, acarbose]
Inhibition Type ([1]; maltose): mixed
Ki ([1]; maltose): / 0.021 μg/mL
type of inhibition against α-glucosidase [1]: mixed type of inhibition (competitive and noncompetitive); also recorded: mixed mode of inhibition
Inhibition Type ([1]; sucrose): mixed
Ki ([1]; sucrose): / 1.52 μg/mL
Inhibition Type ([2]; potato starch): uncompetitive
type of inhibition against α-amylase [2]: uncompetitive; also recorded: uncompetitively
Inhibition Type ([2]; rice starch): uncompetitive
IC50 for the inhibition of α-glucosidase ([3]; substrate maltose): 0.051 ± 0.001a µg/mL
IC50 for the inhibition of α-glucosidase ([3]; substrate sucrose): 1.37 ± 0.04a µg/mL

Cl.N=C(N)NN [Aminoguanidine, aminoguanidine hydrochloride]
IC50 for the inhibition of AGE formation [4]: 137.80 ± 3.44a µg/mL
IC50 for the inhibition of AGE formation [5]: 106.08 ± 3.17 µg·days/mL

O=C(/C=C/c1ccc(O)c(O)c1)O[C@@H]1C[C@](O)(C(=O)O)C[C@@H](O)[C@H]1O [Chlorogenic acid]
Inhibition Type ([1]; maltose): noncompetitive
Ki ([1]; maltose): / 145.41 μg/mL
type of inhibition against α-glucosidase [1]: noncompetitive-type inhibition
Inhibition Type ([1]; sucrose): noncompetitive
Ki ([1]; sucrose): / 181.21 μg/mL
IC50 for the inhibition of AGE formation [5]: 58.87 ± 0.93c µg/mL
IC50 against maltase [6]: 8810 µg/mL (≈ 24.9 mM)
IC50 on α-amylase [7]: 13170 µg/mL (≈ 37.2 mM)
Inhibition Type ([2]; potato starch): competitive
Ki ([2]; potato starch): 3.46 mM
type of inhibition against α-amylase [2]: competitive
Inhibition Type ([2]; rice starch): competitive
Ki ([2]; rice starch): 5.32 mM
IC50 against sucrase [8]: 500 µg/mL (≈ 1.41 mM)
type of inhibitory effect on α-amylase hydrolysis of starch [9]: mixed type inhibitory effect
IC50 towards α-amylase higher than IC50 for CE, on average ([10]; average of both starches): 2.7 fold
IC50 towards α-amylase higher than IC50 for PE, on average ([10]; average of both starches): 14 fold
IC50 ([10]; substrate potato starch): 2.35 mM
IC50 ([10]; substrate starch from rice): 5.54 mM
lower inhibitory activity against α-glucosidase than PEAF ([3]; maltose): 1.7 fold
IC50 for the inhibition of α-glucosidase ([3]; substrate maltose): 103.37 ± 5.29bc µg/mL
IC50 for the inhibition of α-glucosidase ([3]; substrate sucrose): 99.81 ± 0.75ab µg/mL
lower inhibitory activity against α-amylase compared to acarbose (α-amylase): 5 fold
